Like-named read-outs stand apart in the source and are kept apart here.
Tests used:
[1] = tested on: NCI-H524 (ATCC) human lung cancer cells; assay type: cell-based; details: for IC50: Table 15
Method: Conjugates were assessed in an in vitro assay evaluating inhibition of cell proliferation. NCI-H524 (ATCC) human lung cancer cells were plated in 96 well, V-bottomed plates (Costar) at a concentration of 5,000 cells/well and 24 hours later were treated with compound for 2 hours and further incubated 70 hours. Compound starting dose was 20 μM and three-fold serial dilutions were done for a total of ten points. After 2 hours of treatment, cells were spun down, the drug containing media was removed, and fresh complete medium was added and used to resuspend the cells, which were spun again. After removal of the wash media, the cells were resuspended in complete medium, then transferred into white walled, flat bottomed 96 well plates. […] Proliferation was measured using CellTiter Glo reagent using the standard protocol (Promega) and a Glomax multi+detection system (Promega). Percent proliferation inhibition was calculated using the following formula: % inhibition=(control-treatment)/control*100. Control is defined as vehicle alone. IC50 curves were generated using the nonlinear regression analysis (four parameter) with GraphPad Prism 6.
Conjugates of the present invention were assessed in an in vitro assay evaluating inhibition of cell proliferation. NCI-H524 (ATCC) human lung cancer cells were plated in 96 well, V-bottomed plates (Costar) at a concentration of 5,000 cells/well. 24 hours later, cells were treated with either conjugate for 2 hours and further incubated 70 hours, or for octreotide competition experiments, treated with 100 μM octreotide for 30 min, and then treated with conjugate for 2 hours, and further incubated for 70 hours. Conjugate starting dose was 20 μM and three fold serial dilutions were done for a total of ten points. After 2 hours of treatment, cells were spun down, the drug containing media was removed, and fresh complete medium was added and used to resuspend the cells, which were spun again. After removal of the wash media, the cells were resuspended in complete medium, then transferred into white walled, flat bottomed 96 well plates. […] Proliferation was measured using CellTiter Glo reagent using the standard protocol (Promega) and a Glomax multi+detection system (Promega). Percent proliferation inhibition was calculated using the following formula: % inhibition=(control-treatment)/control*100. Control is defined as vehicle alone. IC50 curves were generated using the nonlinear regression analysis (four parameter) with GraphPad Prism 6.
Conjugates of the present invention were tested for their activity dependence on the somatostatin receptor. Active agent Z in the conjugate was selected from auristatin, carbazitaxel, DM1, doxorubicin, platinum, SN-38 and vinblastine. Active agent Z is connected to octreotide with various linkers. Proliferation IC50 values of the conjugates were measured. Proliferation IC50 values of the conjugates without octreotide competition were also measured. The ratio of IC50 with octreotide competition and IC50 without octreotide competition is an indicator of whether activity is at least partially dependent on bind to the somatostatin receptor.

[2] = tested on: NCI-H69 SCLC (small cell lung cancer) tumors; assay: H69 tumor DM-1 levels by LC/MS-MS; assay type: in vivo, mice; details: 24 hour time point; dosed at 1 mg/kg (conjugates, nanoparticles) or 0.4 mg/kg for DM-1
Method: To examine the ability of conjugates of the present invention to accumulate in tumors, a murine cancer model was used. All mice were treated in accordance with the OLAW Public Health Service Policy on Human Care and Use of Laboratory Animals and the ILAR Guide for the Care and Use of Laboratory Animals. All in vivo studies were conducted following the protocols approved by the Blend Therapeutics Institutional Animal Care and Use Committee. Animals were inoculated with 2.5×10{circumflex over (0)}6 NCI-H69 SCLC (small cell lung cancer) cells in 1:1 RPMI 1640 (Invitrogen, Carlsbad, Calif.)/Matrigel® (BD Biosciences, San Jose, Calif.) via subcutaneous injection to the right flank. Tumors were allowed to reach an approximate volume of ˜500 mm3. Animals were then randomized into treatment groups of 3 animals per time point and were dosed at 1 mg/kg (10% propylene glycol in water for injection for free conjugates, or 10% sucrose for nanoparticles), or 0.4 mg/kg for DM-1 (10% propylene glycol in water for injection). The 24 hour time point was used as a benchmark across conjugates.
Tumor DM-1 levels were determined by liquid chromatography mass spectrometry (LC/MS-MS). Four volumes of 5 mM 6-maleimidohexanoic acid to 1 part tumor v/w was added and homogenized for about 10-15 seconds with a handheld homogenizer. 10 μL of 500 mM Tris(2-carboxyethyl)phosphine was added to 100 uL of tumor homogenate, mixed well and incubated at room temperature for about 5-15 min. 200-300 uL of acetonitrile was used to precipitate proteins in tumor homogenate, samples were centrifuged for 5 min, and supernatant was injected onto LC/MS-MS system for DM-1 analysis.

[3] = treated 2 hours, further incubated 70 hours, read-out: H524 IC50
[4] = read-out: H524 IC50+ 100 uM octreotide, 100 μM octreotide for 30 min, then conjugate 2 hours, 70 hours incubation

Structure (SMILES)	IC50 [1, 3]	IC50 [1, 4]	H69 tumor DM-1 levels [2]	effect on cell proliferation ([1]; octreotide alone)
COc1cc2cc(c1Cl)N(C)C(=O)C[C@H](OC(=O)[C@H](C)N(C)C(=O)CCSSCCNC(=O)CC[C@H]1C(=O)N[C@@H](Cc3ccc(O)cc3)C(=O)N[C@H](Cc3c[nH]c4ccccc34)C(=O)N[C@@H](CCCCN)C(=O)N[C@@H]([C@@H](C)O)C(=O)N[C@@H](Cc3ccccc3)C(=O)N1C)[C@]1(C)O[C@H]1[C@H](C)[C@@H]1C[C@@](O)(NC(=O)O1)[C@H](OC)/C=C/C=C(\C)C2 [Conjugate 14]	298 nM	877 nM	70.1 nM	
COc1cc2cc(c1Cl)N(C)C(=O)C[C@H](OC(=O)[C@H](C)N(C)C(=O)CCSSC[C@H](NC(=O)CC[C@H]1C(=O)N[C@@H](Cc3ccc(O)cc3)C(=O)N[C@H](Cc3c[nH]c4ccccc34)C(=O)N[C@@H](CCCCN)C(=O)N[C@@H]([C@@H](C)O)C(=O)N[C@@H](Cc3ccccc3)C(=O)N1C)C(=O)NC(C)(C)CC(C)(C)C)[C@]1(C)O[C@H]1[C@H](C)[C@@H]1C[C@@](O)(NC(=O)O1)[C@H](OC)/C=C/C=C(\C)C2 [Conjugate 16]	223 nM	398 nM	96.4 nM	
COc1cc2cc(c1Cl)N(C)C(=O)C[C@H](OC(=O)[C@H](C)N(C)C(=O)CCSSCCC(=O)NCCCOCCOCCOCCCNC(=O)CC[C@H]1C(=O)N[C@@H](Cc3ccc(O)cc3)C(=O)N[C@H](Cc3c[nH]c4ccccc34)C(=O)N[C@@H](CCCCN)C(=O)N[C@@H]([C@@H](C)O)C(=O)N[C@@H](Cc3ccccc3)C(=O)N1C)[C@]1(C)O[C@H]1[C@H](C)[C@@H]1C[C@@](O)(NC(=O)O1)[C@H](OC)/C=C/C=C(\C)C2 [Conjugate 18]	1480 nM	2160 nM	86.3 nM	
CCCCN(CCSSCCC(=O)N(C)[C@@H](C)C(=O)O[C@H]1CC(=O)N(C)c2cc(cc(OC)c2Cl)C/C(C)=C/C=C/[C@@H](OC)[C@@]2(O)C[C@H](OC(=O)N2)[C@@H](C)[C@@H]2O[C@@]12C)C(=O)CC[C@H]1C(=O)N[C@@H](Cc2ccc(O)cc2)C(=O)N[C@H](Cc2c[nH]c3ccccc23)C(=O)N[C@@H](CCCCN)C(=O)N[C@@H]([C@@H](C)O)C(=O)N[C@@H](Cc2ccccc2)C(=O)N1C [Conjugate 22]	332 nM	741 nM	145 nM	
COc1cc2cc(c1Cl)N(C)C(=O)C[C@H](OC(=O)[C@H](C)N(C)C(=O)CCSSCCNC(=O)[C@@H](NC(=O)[C@@H]1CSSC[C@H](NC(=O)[C@H](N)Cc3ccccc3)C(=O)N[C@@H](Cc3ccc(O)cc3)C(=O)N[C@H](Cc3c[nH]c4ccccc34)C(=O)N[C@@H](CCCCN)C(=O)N[C@@H]([C@@H](C)O)C(=O)N1)[C@@H](C)O)[C@]1(C)O[C@H]1[C@H](C)[C@@H]1C[C@@](O)(NC(=O)O1)[C@H](OC)/C=C/C=C(\C)C2 [Conjugate 35]	253 nM	1000 nM	23.2 nM	
CCCCCCCCN[C@H](Cc1ccccc1)C(=O)N[C@H]1CSSC[C@@H](C(=O)N[C@H](C(=O)NCCSSCCC(=O)N(C)[C@@H](C)C(=O)O[C@H]2CC(=O)N(C)c3cc(cc(OC)c3Cl)C/C(C)=C/C=C/[C@@H](OC)[C@@]3(O)C[C@H](OC(=O)N3)[C@@H](C)[C@@H]3O[C@@]23C)[C@@H](C)O)NC(=O)[C@H]([C@@H](C)O)NC(=O)[C@H](CCCCN)NC(=O)[C@@H](Cc2c[nH]c3ccccc23)NC(=O)[C@H](Cc2ccc(O)cc2)NC1=O [Conjugate 55]	47 nM	395 nM	95.3 nM	
COc1cc2cc(c1Cl)N(C)C(=O)C[C@H](OC(=O)[C@H](C)N(C)C(=O)CCSSC[C@H](NC(=O)[C@@H]1CSSC[C@H](NC(=O)[C@H](N)Cc3ccccc3)C(=O)N[C@@H](Cc3ccc(O)cc3)C(=O)N[C@H](Cc3c[nH]c4ccccc34)C(=O)N[C@@H](CCCCN)C(=O)N[C@@H]([C@@H](C)O)C(=O)N1)C(N)=O)[C@]1(C)O[C@H]1[C@H](C)[C@@H]1C[C@@](O)(NC(=O)O1)[C@H](OC)/C=C/C=C(\C)C2 [Conjugate 57]	136 nM	1650 nM	243 nM	
COc1cc2cc(c1Cl)N(C)C(=O)C[C@H](OC(=O)[C@H](C)N(C)C(=O)CCSSCCCN[C@H](Cc1ccccc1)C(=O)N[C@H]1CSSC[C@@H](C(=O)N[C@H](C(=O)O)[C@@H](C)O)NC(=O)[C@H]([C@@H](C)O)NC(=O)[C@H](CCCCN)NC(=O)[C@@H](Cc3c[nH]c4ccccc34)NC(=O)[C@H](Cc3ccc(O)cc3)NC1=O)[C@]1(C)O[C@H]1[C@H](C)[C@@H]1C[C@@](O)(NC(=O)O1)[C@H](OC)/C=C/C=C(\C)C2 [Conjugate 80]	152 nM	157 nM	91.2 nM	
CCCCCCCCCCC(CCN[C@H](Cc1ccccc1)C(=O)N[C@H]1CSSC[C@@H](C(=O)N[C@@H](CO)[C@@H](C)O)NC(=O)[C@H]([C@@H](C)O)NC(=O)[C@H](CCCCN)NC(=O)[C@@H](Cc2c[nH]c3ccccc23)NC(=O)[C@H](Cc2ccccc2)NC1=O)SSCCC(=O)N(C)[C@@H](C)C(=O)O[C@H]1CC(=O)N(C)c2cc(cc(OC)c2Cl)C/C(C)=C/C=C/[C@@H](OC)[C@@]2(O)C[C@H](OC(=O)N2)[C@@H](C)[C@@H]2O[C@@]12C (stereo partly drawn) [Conjugate 106]	400 nM	666 nM		
COc1cc2cc(c1Cl)N(C)C(=O)C[C@H](OC(=O)[C@H](C)N(C)C(=O)CCSC1CC(=O)N(CC(=O)N[C@H](Cc3ccccc3)C(=O)N[C@H]3CSSC[C@@H](C(=O)N[C@H](CO)[C@@H](C)O)NC(=O)[C@H]([C@@H](C)O)NC(=O)[C@H](CCCCN)NC(=O)[C@@H](Cc4c[nH]c5ccccc45)NC(=O)[C@H](Cc4ccccc4)NC3=O)C1=O)[C@]1(C)O[C@H]1[C@H](C)[C@@H]1C[C@@](O)(NC(=O)O1)[C@H](OC)/C=C/C=C(\C)C2 (stereo partly drawn) [Conjugate 108]	96 nM	1280 nM		
COc1cc2cc(c1Cl)N(C)C(=O)C[C@H](OC(=O)[C@H](C)N(C)C(=O)CCSSCCC(=O)NCCCC[C@@H](N)C(=O)N[C@H]1CSSC[C@@H](C(=O)N[C@H](C(=O)O)[C@@H](C)O)NC(=O)[C@H]([C@@H](C)O)NC(=O)[C@H](CCCCN)NC(=O)[C@@H](Cc3c[nH]c4ccccc34)NC(=O)[C@H](Cc3ccc(O)cc3)NC1=O)[C@]1(C)O[C@H]1[C@H](C)[C@@H]1C[C@@](O)(NC(=O)O1)[C@H](OC)/C=C/C=C(\C)C2 [Conjugate 113]	1080 nM	4920 nM		
COc1cc2cc(c1Cl)N(C)C(=O)C[C@H](OC(=O)[C@H](C)N(C)C(=O)CCSSC[C@@H](N)C(=O)N[C@H]1CSSC[C@@H](C(=O)N[C@H](C(=O)O)[C@@H](C)O)NC(=O)[C@H]([C@@H](C)O)NC(=O)[C@H](CCCCN)NC(=O)[C@@H](Cc3c[nH]c4ccccc34)NC(=O)[C@H](Cc3ccc(O)cc3)NC1=O)[C@]1(C)O[C@H]1[C@H](C)[C@@H]1C[C@@](O)(NC(=O)O1)[C@H](OC)/C=C/C=C(\C)C2 [Conjugate 119]	2660 nM	> 5000 nM		
C[C@@H](O)[C@@H]1NC(=O)[C@H](CCCCN)NC(=O)[C@@H](Cc2c[nH]c3ccccc23)NC(=O)[C@H](Cc2ccccc2)NC(=O)[C@@H](NC(=O)[C@H](N)Cc2ccccc2)CSSC[C@@H](C(=O)N[C@H](CO)[C@@H](C)O)NC1=O [Octreotide, octreotide, reference compound]				no significant effect
